The numbers were not newly measured in PubChem BioAssay AID1259409 (Chemical Carcinogenesis Research Information System (CCRIS), 2018), which cites them from elsewhere.

Several values for one entry are separate records, joined by “and”; a condition that tells them apart may be missing. Equal values may be shown once.

In this data set the test system is rodent chemically induced tumor inhibition, incidence and multiplicity. The data set can be described thus: CCRIS tumor inhibitor studies. The settings on record: Promoter: NONE USED.

`CC1=C(/C=C/C(C)=C/C=C/C(C)=C/C=C/C=C(C)/C=C/C=C(C)/C=C/C2=C(C)CCCC2(C)C)C(C)(C)CCC1`: the outcome (Carcinogen: N-METHYL-N'-NITRO-N-NITROSOGUANIDINE, 70-25-7, Dose [Inhibitor]: 0, 0.4% IN DIET FOR 2 WK PRIOR TO FIRST CARCINOGEN DOSE FOLLOWED BY 0, 0.2% IN DIET FOR 52 WK (STUDY DURATION: 54 WK), Dose [Inhibitor]: 0, 0.4% IN DIET FOR 2 WK PRIOR TO FIRST CARCINOGEN DOSE FOLLOWED BY 0, 0.2% IN DIET FOR 52 WK (STUDY DURATION: 54 WK), Route [Inhibitor]: ORAL, Species: RAT, Strain/Sex: WISTAR/MALE, Target Tissue: Type of Lesion: SMALL INTESTINE: FIBROSARCOMA, Dose [Carcinogen]: 80 UG/ML IN DRINKING WATER FOR 52 WK) is 0/36 (0%), 1/35 (3%), -300%, not calculated. Moreover, the “tumour outcome (control, treated, inhibition, significance)” value (Carcinogen: N-METHYL-N'-NITRO-N-NITROSOGUANIDINE, 70-25-7, Dose [Inhibitor]: 0, 0.4% IN DIET FOR 2 WK PRIOR TO FIRST CARCINOGEN DOSE FOLLOWED BY 0, 0.2% IN DIET FOR 52 WK (STUDY DURATION: 54 WK), Dose [Inhibitor]: 0, 0.4% IN DIET FOR 2 WK PRIOR TO FIRST CARCINOGEN DOSE FOLLOWED BY 0, 0.2% IN DIET FOR 52 WK (STUDY DURATION: 54 WK), Route [Inhibitor]: ORAL, Species: RAT, Strain/Sex: WISTAR/MALE, Target Tissue: Type of Lesion: SMALL INTESTINE: LEIOMYOMA, Dose [Carcinogen]: 80 UG/ML IN DRINKING WATER FOR 52 WK) is reported as 1/36 (3%), 0/35 (0%), 100%, not calculated; the “tumour outcome (control, treated, inhibition, significance)” value (Carcinogen: NONE USED, Dose [Inhibitor]: 0, 0.005% IN DRINKING WATER AD LIBITUM FOR 40 WK (STUDY DURATION: 40 WK), Route [Inhibitor]: ORAL, Species: MOUSE, Strain/Sex: C3H/HE/MALE, Target Tissue: Type of Lesion: LIVER: TUMOR) is 100%, 100%, 0%, not significant; the “tumour outcome (control, treated, inhibition, significance)” value (Carcinogen: NONE USED, Dose [Inhibitor]: 0, 0.005% IN DRINKING WATER FOR 40 WK (STUDY DURATION: 40 WK), Route [Inhibitor]: ORAL, Species: MOUSE, Strain/Sex: C3H/HE/MALE, Target Tissue: Type of Lesion: LIVER: TUMORS) is 16/16 (100%), 16/16 (100%), 0%, not significant; the “tumour outcome (control, treated, inhibition, significance)” value (Carcinogen: NONE USED, Dose [Inhibitor]: 0, 0.05% IN DRINKING WATER AD LIBITUM FOR 40 WK (STUDY DURATION: 40 WK), Route [Inhibitor]: ORAL, Species: MOUSE, Strain/Sex: C3H/HE/MALE, Target Tissue: Type of Lesion: LIVER: TUMOR) is reported as 100%, 100%, 0%, not significant; the “tumour outcome (control, treated, inhibition, significance)” value (Carcinogen: NONE USED, Dose [Inhibitor]: 0, 0.05% IN DRINKING WATER FOR 40 WK (STUDY DURATION: 40 WK), Route [Inhibitor]: ORAL, Species: MOUSE, Strain/Sex: C3H/HE/MALE, Target Tissue: Type of Lesion: LIVER: TUMORS) is on record as 16/16 (100%), 17/17 (100%), 0%, not significant; the “tumour outcome (control, treated, inhibition, significance)” value (Carcinogen: NONE USED, Dose [Inhibitor]: 0, 2.5 MG/D IN DRINKING WATER FROM 8 MO OF AGE (STUDY DURATION: 15 MO), Route [Inhibitor]: ORAL, Species: MOUSE, Strain/Sex: C3H/FEMALE, Target Tissue: Type of Lesion: MAMMARY GLAND: TUMOR) is 12/20 (60%), 4/19 (21%), 65%, not calculated. For the same compound, the “tumour outcome (control, treated, inhibition, significance)” value reads like this: (Carcinogen: UV-B IRRADIATION (HANOVIA QUARTZ CONTACT LAMP IN 290-320 NM RANGE), Dose [Inhibitor]: 0.4 ML OF BEADLET SOLUTION CONTAINING 0.1 G/4 ML 3/WK FOR 1 MO FOLLOWED BY 0.2 ML OF BEADLET SOLUTION CONTAINING 0.1 G/4, Route [Inhibitor]: INTRAPERITONEAL, Species: MOUSE, Strain/Sex: ALBINO, Target Tissue: Type of Lesion: SKIN: SQUAMOUS CELL CARCINOMA, Dose [Carcinogen]: 6.5 KJ/SQ M 3/WK FOR 15 MO BEGINNING 1 MO POST AGENT DOSE) 14/21 (67%), 6/20 (25%), 63%, p=0.0189 and 14/21 (67%), 5/18 (28%), 58%, p=0.0154; (Carcinogen: UV-B IRRADIATION (WESTINGHOUSE FS-20 SUNLAMP 55% IN 290-320 NM RANGE), Dose [Inhibitor]: 3.3 G/100 G OF PELLETIZED FEED BEGINNING 10 WK PRIOR TO CARCINOGEN DOSE TO 24 WK POST CARCINOGEN DOSE (STUDY DURATION: 3, Route [Inhibitor]: ORAL, Species: MOUSE, Strain/Sex: SKH, Target Tissue: Type of Lesion: SKIN: TUMOR, Dose [Carcinogen]: 80 KJ/SQ M TOTAL ENERGY DURING A 220 MINUTE SINGLE EXPOSURE) 4/9 (44%), 2/7 (29%), 34%, not significant; (Carcinogen: UVB IRRADIATION, Dose [Inhibitor]: 0, 1% IN DIET FOR DURATION OF STUDY BEGINNING 3 WK PRIOR TO IRRADIATION (STUDY DURATION: 33 WK), Route [Inhibitor]: ORAL, Species: MOUSE, Strain/Sex: C3H/HEN/FEMALE, Target Tissue: Type of Lesion: SKIN: TUMOR, Dose [Carcinogen]: 6 J/M2/SEC 30 MIN/D, 5 D/WK FOR 27 WK) 81%, 67%, 17%, not significant.
